Measurements reported in ChEMBL document CHEMBL1131651, “Discovery of LB30057, a benzamidrazone-based selective oral thrombin inhibitor” (Bioorg Med Chem Lett, 1998).

Assays:
Prothrombin [1] = target: Prothrombin (Bos taurus, UniProt P00735)
Description: Compound was tested for inhibitory activity against bovine thrombin

Coagulation factor X = Coagulation factor X (Homo sapiens, UniProt P00742); test: The compound was tested for inhibitory activity against Coagulation factor X
[2] = target: Tissue-type plasminogen activator (Homo sapiens, UniProt P00750); test: The compound was tested for inhibitory activity against tissue plasminogen activator
[3] = Compound was tested for percent of oral bioavailability at 10 […] dose in dogs; format: ADME, organism-based, Canis lupus familiaris; settings: dog, in vivo, read-out: Bioavailabiility
Plasminogen = Plasminogen (Homo sapiens, UniProt P00747); test: The compound was tested for inhibitory activity against human plasmin
Prothrombin [4] = target: Prothrombin (Homo sapiens, UniProt P00734); test: Compound was tested for inhibitory activity against human thrombin
[5] = Half life was evaluated in dog; format: ADME, organism-based, Canis lupus familiaris; settings: in vivo

Sequence of Plasminogen (P00747 97-580 limits assumed): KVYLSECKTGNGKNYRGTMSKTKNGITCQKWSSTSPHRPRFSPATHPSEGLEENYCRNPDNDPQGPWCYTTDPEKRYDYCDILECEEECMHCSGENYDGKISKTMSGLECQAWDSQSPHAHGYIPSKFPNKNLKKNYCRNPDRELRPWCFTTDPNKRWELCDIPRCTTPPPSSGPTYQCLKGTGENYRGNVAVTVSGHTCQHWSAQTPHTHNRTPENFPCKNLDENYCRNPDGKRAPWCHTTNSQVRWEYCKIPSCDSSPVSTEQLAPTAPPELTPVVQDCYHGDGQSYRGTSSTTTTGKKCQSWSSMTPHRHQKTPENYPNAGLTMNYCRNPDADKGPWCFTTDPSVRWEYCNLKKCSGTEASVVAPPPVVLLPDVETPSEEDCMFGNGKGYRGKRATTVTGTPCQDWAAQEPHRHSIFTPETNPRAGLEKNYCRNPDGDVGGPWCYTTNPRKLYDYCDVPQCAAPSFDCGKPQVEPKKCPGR
Sequence of Plasminogen (P00747 581-810 limits assumed): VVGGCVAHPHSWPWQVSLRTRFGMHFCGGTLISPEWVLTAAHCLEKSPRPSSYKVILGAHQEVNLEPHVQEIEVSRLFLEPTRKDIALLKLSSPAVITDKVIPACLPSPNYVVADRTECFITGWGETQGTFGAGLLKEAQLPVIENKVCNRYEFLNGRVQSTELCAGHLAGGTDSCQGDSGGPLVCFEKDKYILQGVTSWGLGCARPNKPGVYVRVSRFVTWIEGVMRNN
Sequence of Tissue-type plasminogen activator (P00750 whole entry): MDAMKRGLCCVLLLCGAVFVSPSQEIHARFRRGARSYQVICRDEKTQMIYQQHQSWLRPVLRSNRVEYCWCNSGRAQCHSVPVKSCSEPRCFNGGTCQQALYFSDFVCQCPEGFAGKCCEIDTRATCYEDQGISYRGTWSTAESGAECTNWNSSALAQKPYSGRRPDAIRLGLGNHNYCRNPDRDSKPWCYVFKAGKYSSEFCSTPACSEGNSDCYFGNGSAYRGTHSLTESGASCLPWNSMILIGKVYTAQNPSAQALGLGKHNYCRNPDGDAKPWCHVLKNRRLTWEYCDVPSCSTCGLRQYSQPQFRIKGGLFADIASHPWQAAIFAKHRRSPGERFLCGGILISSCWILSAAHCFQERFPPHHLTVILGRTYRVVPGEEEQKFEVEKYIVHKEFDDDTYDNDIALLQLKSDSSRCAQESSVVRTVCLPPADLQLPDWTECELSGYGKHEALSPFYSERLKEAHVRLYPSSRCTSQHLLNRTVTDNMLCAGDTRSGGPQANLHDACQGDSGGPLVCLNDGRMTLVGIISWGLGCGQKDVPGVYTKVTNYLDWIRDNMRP
Sequence of Coagulation factor X (P00742 41-179 limits assumed): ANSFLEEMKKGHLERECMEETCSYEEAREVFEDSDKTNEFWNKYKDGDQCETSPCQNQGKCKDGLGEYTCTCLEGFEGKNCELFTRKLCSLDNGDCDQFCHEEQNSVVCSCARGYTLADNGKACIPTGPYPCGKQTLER
Sequence of Coagulation factor X (P00742 235-488 limits assumed): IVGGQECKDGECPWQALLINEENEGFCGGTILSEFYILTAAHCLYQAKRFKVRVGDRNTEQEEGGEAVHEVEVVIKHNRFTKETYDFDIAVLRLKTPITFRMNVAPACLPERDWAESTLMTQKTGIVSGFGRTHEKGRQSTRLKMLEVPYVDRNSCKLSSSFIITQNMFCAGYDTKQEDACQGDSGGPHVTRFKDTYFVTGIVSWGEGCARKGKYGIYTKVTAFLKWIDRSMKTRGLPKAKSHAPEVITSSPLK

SMILES	Ki (Prothrombin [1]) [nM]	Ki (Coagulation factor X) [nM]	Ki [2] [nM]	bioavailability [3] [%]	Ki (Plasminogen) [nM]	Ki (Prothrombin [4]) [nM]	half-life [5] [h]
NN=C(N)c1ccc(C[C@H](NS(=O)(=O)c2ccc3ccccc3c2)C(=O)N(CCO)C2CCCC2)cc1	7040						
CCN(C(=O)[C@H](Cc1ccc(C(=N)NN)cc1)NS(=O)(=O)c1ccc2ccccc2c1)C1CCCC1	4						
N=C(NN)c1ccc(C[C@H](NS(=O)(=O)c2ccc3ccccc3c2)C(=O)N2CCCCCC2)cc1	1470						
CN(C(=O)[C@H](Cc1ccc(C(=N)NN)cc1)NS(=O)(=O)c1ccc2ccccc2c1)C1CCCC1	1.1	1100	27200	58	47900	0.38	1.87
